Entries after “also recorded” stand apart in the source; their conditions may differ. Where two headings read alike, the source gives them in different places.
Assays:
PC3-LN4 cells [1] = experiment: P-body (PB) number in PC3-LN4 GFP-EDC3 cells; assay type: cell-based, human; conditions: 6 h
Experimental: (§1) FIGS. 7A-7I show inhibition of VBT5445 (VBT) on Pim1 and EDC3 binding and phosphorylation. FIG. 7A: In vitro co-precipitation (Co-PPT) assay was performed with recombinant EDC3 and biotinylated Pim1 using Streptavidin beads with increasing concentrations of the Pim inhibitor VBT5445 (VBT). FIG. 7B: Kinase assays were performed with recombinant EDC3 and Pim1 with increasing concentrations of VBT. FIG. 7C: Cell lysates from PC3-LN4 cells cultured with DMSO, 10 μM VBT, 3 μM AZD5363 (AKTi) and the combination for 6 hrs were subjected to western blotting (WB). […] WBs were performed using the indicated antibodies. FIG. 7E: PC3-LN4 cells were seeded into 48 well plate and incubated with either DMSO, VBT, AZD5363 or the combination, for 4.5 days. A real-time imaging system (IncuCyte™) was used to measure cell proliferation using a non-label cell monolayer confluence approach. FIG. 7F-7H: GFP image in PC3 LN4 GFP EDC3 expressing cells treated with PIMi: VBT (5 μM) and VBT (5 μM)+AZD5363 (3 μM) for 6 hrs.
To measure PB numbers, PC3-LN4 PCa cells containing a CRISPR/Cas total knock-out of EDC3 were stably transduced with GFP-EDC3. When localized in PBs, GFP spots could be quantified. PBs were quantified at the University of Colorado Center for Drug Discovery using an Opera Phenix Plus high content screening system (PerkinElmer) Perkin Elmer G3 robotic system after drug treatment. Assays were carried out in quadruplicate and the mean number of PBs per cell and cell area calculated. An example of this assay is shown using […] buffered saline (HBSS) to induce PB formation.
Immunofluorescence: Immunofluorescence (IF) staining was performed on PC3-LN4 cells stably expressing EDC3-GFP. 1×10^4 cells were seeded in each chamber of an 8 well chamber slide (Nunc Lab-Tek II Chamber Slide System, Life Technologies) and cultured for 48 h. After attaching to the chamber slides cells were treated with DMSO, VB-5445 ([…]), AZD5363 (3 μM), or the combination for 6 h. Cells were then fixed with 4% paraformaldehyde in PBS for 15 min and subsequently permeabilized with 0.2% Triton X-100 in PBS. Cells were stained with diluted DAPI (1:4000) in 1% nor-mal goat serum in PBS. Cells were mounted with Prolong Gold Antifade mounting medium (Molecular Probes).

PC3-LN4 cells [2] = experiment: Cell growth assay (IncuCyte) in PC3-LN4 prostate cancer cells; assay type: cell-based, human; conditions: combination with AZD5363 or BKM120
Experimental: as §1
Cell growth assay: Tumor cells were seeded into 48 well plates (1000 cells/well) and treated with varied agents. The Incucyte real-time imaging system (Incucyte) was used to measure cell proliferation using a non-label cell monolayer confluence approach. The images were captured every 12 h. Graphs were generated using an integrated confluence metric as an alternative for cell numbers. At the end of the study cell growth was visualized by crystal violet staining.

[3] = system: T-cell acute lymphoblastic leukemia cell line DU528; experiment: Cell viability (XTT) assay in T-ALL cells; assay type: cell-based; conditions: 72 h, listed as VBT 1-34
Experimental: Cell viability (XTT) assay: T-ALL cells were seeded into 96 well plates at a density of 20,000 cells per well and treated with VBT-5445 for 72 h, using DMSO as control. Cell viability was measured using XTT cell proliferation assay (Trevigen Cat #4891-025-K) following the manufacturer's protocol. Briefly, XTT reagent was added to cell culture after the treatment and incubated for 4 h at 37° C. and 5% CO2. The absorbance of the colored formazan product was measured at 450 nm.

PC3-LN4 cells [4] = experiment: Western blotting of PC3-LN4 cell lysates; assay type: cell-based, human
Experimental: as §1, with “FIG.” for “FIGS. 7A-7I show inhibition of VBT5445 (VBT) on Pim1 and EDC3 binding and phosphorylation. FIG.”
Extracts were subjected to Western blotting with the indicated antibodies.
Immunoblotting: Western blots were performed as described previously. Briefly, protein lysates (30 μg) were subjected to SDS-PAGE and transferred to nitrocellulose membranes. After blocking with 5% milk in TBST buffer for 30 min at room temperature, the membranes were incubated overnight at 4° C. with the Indicated primary antibody in 3% BSA in TBST. Specific proteins were detected with the corresponding HRP conjugated secondary antibody using enhanced chemiluminescence (GE Lifesciences, Piscataway, NJ).

PC3-LN4 and PANC1 cells = experiment: RPPA of PC3-LN4 and PANC1 cells (FIG. 24); assay type: cell-based; conditions: 5 μM, 24 h
Experimental: Tumor cells were treated with or without GRG-1-34 (5 μM) for 24 h and lysates were subjected to RPPA. The results were clustered in the form of heat map created using the Heatmapper web tool. The analysis was completed with the clustering method of Complete Linkage and the distance measurement method of Kendall's Tau.
To further examine how these compounds function to inhibit tumor growth, changes in both a wide variety of phosphoprotein and protein levels using reverse-phase protein arrays (RPPA) were evaluated. PANC1 and PC3-LN4 cells were treated with GRG1-34 at 5 μM for 24 h. […] The values in the RPPA obtained at these two time points were divided by the value at time zero to allow an evaluation of the changes caused by each drug treatment.

Structure (SMILES): O=c1c(CNCc2cc(Br)ccn2)cc2ccc(Cl)cc2n1CCOc1ccccc1 [GRG-1-34, 3-((((4-bromopyridin-2-yl)methyl)amino)methyl)-7-chloro-1-(2-phenoxyethyl) quinolin-2 (1H)-one]
- number of P-bodies, with AKT inhibitor AZD5363 added (PC3-LN4 cells [1]; combination with AZD5363 (3 μM), listed as VBT 1-34): further increased the number of P-bodies; also recorded: further increases P-bodies
- number of P-bodies (PC3-LN4 cells [1]; compound alone): increases the number of P-bodies
- prostate cancer (PC3-LN4) growth, in combination with AKT/PI3K inhibitor (PC3-LN4 cells [2]): enhanced
- growth of T-acute lymphoblastic leukemia cells [3]: inhibits the growth; also recorded: shows activity
- cellular level of Pim kinases (PC3-LN4 cells [4]): decreases
- cellular level of c-Myc protein (PC3-LN4 cells [4]): decreases
- mTORC1 activity: phosphorylation of the S6 protein (PC3-LN4 cells [4]): inhibited the phosphorylation of the mTORC1 substrate S6 protein
- phosphorylation of AKT on serine 473 (PC3-LN4 cells [4]): increased the phosphorylation of AKT on serine 473
- mTORC1 activity: phosphorylation of the S6 protein (PC3-LN4 cells [4]; listed as VBT 1-34): decreases
- mTORC signaling pathway on RPPA (mTOR S2448, S6 S235/235, S6K T389, 4E-BP1 S65) (PC3-LN4 and PANC1 cells): inhibition
- phosphorylation of AMPK T172 on RPPA (PC3-LN4 and PANC1 cells): increased
- phosphorylation of acetyl COA carboxylase S79 on RPPA (PC3-LN4 and PANC1 cells): increased
